Experimental data taken from ChEMBL document CHEMBL3045267, “Aromatic-ring-functionalised benzoxazinones in the system Oryza sativa-Echinochloa crus-galli as biorational herbicide models” (Pest Manag Sci, 2009).

Assays:
Echinochloa crus-galli [1] = test: Herbicidal activity against Echinochloa crus-galli (barnyard grass) assessed as inhibition of root length after 5 days at 25 degC; format: functional, organism-based; conditions: 120 h
Oryza sativa = test: Phytotoxicity against Oryza sativa (rice) assessed as inhibition of root length after 7 days at 25 degC; format: organism-based; conditions: 168 h
Echinochloa crus-galli [2] = test: Herbicidal activity against Echinochloa crus-galli (barnyard grass) assessed as inhibition of root length at 64 uM after 5 days at 25 degC; format: functional; conditions: 120 h
[3] = Phytotoxicity against Oryza sativa (rice) assessed as inhibition of root length at 64 uM after 7 days at 25 degC; format: organism-based; conditions: whole organism (rice plants, root growth)

SMILES	IC50 (Echinochloa crus-galli [1]) [µM]	IC50 (Oryza sativa) [µM]	inhibition at 64 µM (Echinochloa crus-galli [2]) [%]	inhibition at 168 h, 64 µM [3] [%]
O=C1COc2ccccc2N1O	360			
COc1ccc2c(c1)OCC(=O)N2O	819			
O=C1COc2c(Cl)cc(Cl)cc2N1O [6,8-diCl-D-DIBOA]	281	3320		
O=C1COc2ccc(C(F)(F)F)cc2N1O [6-CF3-D-DIBOA]	160	264		
O=C1COc2ccc(Cl)cc2N1O [6-Cl-D-DIBOA]	8	3		
O=C1COc2ccc(F)cc2N1O [6-F-D-DIBOA]	2.8	9		
COc1ccc2c(c1)N(O)C(=O)CO2 [6-MeO-D-DIBOA]	159			
COC(=O)c1ccc2c(c1)N(O)C(=O)CO2 [6-MeOCO-D-DIBOA]	229			
O=C1COc2c(ccc(F)c2F)N1O [7,8-diF-D-DIBOA]	52	159		
COc1ccc2c(c1OC)OCC(=O)N2O [7,8-diMeO-D-DIBOA]	690			
O=C1COc2cc(F)ccc2N1O [7-F-D-DIBOA]	130	171		
COC(=O)c1ccc2c(c1)OCC(=O)N2O [7-MeOCO-D-DIBOA]	1640			
O=C1COc2c(Cl)cccc2N1O [8-Cl-D-DIBOA]	44	501	60	10
O=C1COc2c(F)cccc2N1O [8-F-D-DIBOA]	69	185		
CCC(=O)Nc1ccc(Cl)c(Cl)c1 [PROPANIL]		213		
